{"source": "paper PMC8800111", "about": "(The Journal of Biological Chemistry, 2021)", "type_in_all_cases": "cell-based", "key": {"[1]": {"target": "proteins of U3A human fibrosarcoma cells (4462 proteins detected) (Homo sapiens, UniProt Q9H4E7)", "conditions": "protein DEF6; U3A cells"}, "[2]": {"target": "proteins of U3A human fibrosarcoma cells (4462 proteins detected) (Homo sapiens, UniProt Q8WUR7)", "conditions": "protein C15orf40, U3A cells"}, "[3]": {"target": "proteins of U3A human fibrosarcoma cells (4462 proteins detected) (Homo sapiens, UniProt Q9H4A3)", "sequence (Q9H4A3 whole entry)": "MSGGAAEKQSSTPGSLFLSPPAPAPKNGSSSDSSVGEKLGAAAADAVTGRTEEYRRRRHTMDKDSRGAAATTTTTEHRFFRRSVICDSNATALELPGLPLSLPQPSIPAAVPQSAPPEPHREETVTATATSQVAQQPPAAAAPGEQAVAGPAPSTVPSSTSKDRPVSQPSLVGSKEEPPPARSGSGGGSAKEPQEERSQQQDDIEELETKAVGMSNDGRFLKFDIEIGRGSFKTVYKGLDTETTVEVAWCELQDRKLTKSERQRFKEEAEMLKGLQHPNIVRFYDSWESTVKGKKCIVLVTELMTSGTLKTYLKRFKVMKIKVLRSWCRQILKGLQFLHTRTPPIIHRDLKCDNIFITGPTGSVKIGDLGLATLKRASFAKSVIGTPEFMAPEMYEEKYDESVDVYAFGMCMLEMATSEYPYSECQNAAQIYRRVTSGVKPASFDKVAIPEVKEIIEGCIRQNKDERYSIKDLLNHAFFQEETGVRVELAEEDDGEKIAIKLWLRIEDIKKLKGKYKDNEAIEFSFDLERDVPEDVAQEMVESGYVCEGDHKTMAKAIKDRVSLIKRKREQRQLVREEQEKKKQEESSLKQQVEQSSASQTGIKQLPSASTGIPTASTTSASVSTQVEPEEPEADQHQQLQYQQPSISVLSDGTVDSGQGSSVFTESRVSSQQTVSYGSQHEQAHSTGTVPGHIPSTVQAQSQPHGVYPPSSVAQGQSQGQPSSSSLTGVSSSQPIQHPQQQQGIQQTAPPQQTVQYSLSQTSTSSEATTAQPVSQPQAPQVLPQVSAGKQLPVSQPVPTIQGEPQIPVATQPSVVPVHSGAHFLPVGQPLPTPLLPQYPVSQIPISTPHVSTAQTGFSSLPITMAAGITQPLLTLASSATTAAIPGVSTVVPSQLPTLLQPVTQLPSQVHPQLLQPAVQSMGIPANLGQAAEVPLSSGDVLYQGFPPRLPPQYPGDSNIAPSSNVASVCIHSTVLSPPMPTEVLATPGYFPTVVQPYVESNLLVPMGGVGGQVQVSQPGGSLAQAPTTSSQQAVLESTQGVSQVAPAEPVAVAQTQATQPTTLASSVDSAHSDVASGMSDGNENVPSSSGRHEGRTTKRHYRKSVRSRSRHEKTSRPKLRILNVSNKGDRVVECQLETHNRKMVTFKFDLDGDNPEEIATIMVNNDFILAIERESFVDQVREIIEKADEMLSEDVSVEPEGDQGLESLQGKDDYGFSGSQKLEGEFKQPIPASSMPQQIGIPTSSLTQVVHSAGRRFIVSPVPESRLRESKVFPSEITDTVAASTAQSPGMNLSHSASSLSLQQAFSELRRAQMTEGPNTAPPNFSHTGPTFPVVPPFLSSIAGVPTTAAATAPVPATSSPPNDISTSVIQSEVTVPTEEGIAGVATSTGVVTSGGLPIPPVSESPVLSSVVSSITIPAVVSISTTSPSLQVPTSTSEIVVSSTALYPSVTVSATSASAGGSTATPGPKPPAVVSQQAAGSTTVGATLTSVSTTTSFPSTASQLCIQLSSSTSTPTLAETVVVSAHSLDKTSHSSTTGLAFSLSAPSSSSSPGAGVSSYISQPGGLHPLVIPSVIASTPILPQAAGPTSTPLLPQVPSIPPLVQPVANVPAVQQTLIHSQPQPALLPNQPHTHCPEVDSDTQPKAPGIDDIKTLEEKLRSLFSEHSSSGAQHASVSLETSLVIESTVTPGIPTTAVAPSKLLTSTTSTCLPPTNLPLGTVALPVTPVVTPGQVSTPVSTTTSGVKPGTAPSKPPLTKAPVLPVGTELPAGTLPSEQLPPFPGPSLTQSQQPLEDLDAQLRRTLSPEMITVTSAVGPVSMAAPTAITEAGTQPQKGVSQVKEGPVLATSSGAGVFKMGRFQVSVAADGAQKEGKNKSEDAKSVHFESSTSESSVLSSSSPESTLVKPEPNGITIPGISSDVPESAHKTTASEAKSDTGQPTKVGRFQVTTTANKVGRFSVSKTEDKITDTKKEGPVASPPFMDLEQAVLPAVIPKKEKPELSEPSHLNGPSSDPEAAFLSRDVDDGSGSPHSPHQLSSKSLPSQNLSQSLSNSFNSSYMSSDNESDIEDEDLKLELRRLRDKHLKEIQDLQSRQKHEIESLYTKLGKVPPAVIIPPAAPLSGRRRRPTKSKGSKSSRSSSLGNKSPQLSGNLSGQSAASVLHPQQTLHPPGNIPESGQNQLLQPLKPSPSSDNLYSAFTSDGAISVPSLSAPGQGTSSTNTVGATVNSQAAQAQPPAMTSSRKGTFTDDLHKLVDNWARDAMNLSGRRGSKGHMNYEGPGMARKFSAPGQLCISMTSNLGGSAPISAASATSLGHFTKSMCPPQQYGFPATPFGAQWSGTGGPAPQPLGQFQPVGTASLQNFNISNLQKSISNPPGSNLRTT", "conditions": "protein WNK1, U3A cells"}, "[4]": {"target": "proteins of U3A human fibrosarcoma cells (4462 proteins detected) (Homo sapiens, UniProt P36776)", "sequence (P36776 68-959)": "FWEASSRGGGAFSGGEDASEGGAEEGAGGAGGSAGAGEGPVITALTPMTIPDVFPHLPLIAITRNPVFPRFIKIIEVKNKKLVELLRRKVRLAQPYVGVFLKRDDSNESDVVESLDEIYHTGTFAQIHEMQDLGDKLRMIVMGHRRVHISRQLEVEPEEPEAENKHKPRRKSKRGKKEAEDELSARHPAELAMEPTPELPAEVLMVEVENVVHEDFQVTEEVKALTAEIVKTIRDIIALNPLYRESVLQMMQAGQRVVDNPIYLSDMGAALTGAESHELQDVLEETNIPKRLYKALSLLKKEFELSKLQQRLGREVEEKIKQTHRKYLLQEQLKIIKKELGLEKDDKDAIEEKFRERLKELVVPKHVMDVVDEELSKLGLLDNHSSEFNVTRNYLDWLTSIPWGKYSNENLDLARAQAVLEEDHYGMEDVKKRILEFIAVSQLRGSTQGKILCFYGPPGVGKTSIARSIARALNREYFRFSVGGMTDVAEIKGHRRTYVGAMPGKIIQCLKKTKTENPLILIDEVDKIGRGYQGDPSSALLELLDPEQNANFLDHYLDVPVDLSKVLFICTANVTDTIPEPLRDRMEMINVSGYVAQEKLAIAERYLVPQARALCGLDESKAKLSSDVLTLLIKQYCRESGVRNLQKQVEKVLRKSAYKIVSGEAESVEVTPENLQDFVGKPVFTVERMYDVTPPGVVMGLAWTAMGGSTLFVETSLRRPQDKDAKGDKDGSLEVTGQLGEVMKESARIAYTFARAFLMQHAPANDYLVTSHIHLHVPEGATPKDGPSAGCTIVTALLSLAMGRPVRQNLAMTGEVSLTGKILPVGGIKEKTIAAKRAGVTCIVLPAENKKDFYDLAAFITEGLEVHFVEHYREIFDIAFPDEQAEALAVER", "conditions": "protein LONP1; U3A cells"}, "[5]": {"target": "proteins of U3A human fibrosarcoma cells (4462 proteins detected) (Homo sapiens, UniProt Q7Z4W1)", "conditions": "protein DCXR; soluble abundance after heat, U3A cells"}, "[6]": {"target": "proteins of U3A human fibrosarcoma cells (4462 proteins detected) (Homo sapiens, UniProt Q16774)", "sequence (Q16774 whole entry)": "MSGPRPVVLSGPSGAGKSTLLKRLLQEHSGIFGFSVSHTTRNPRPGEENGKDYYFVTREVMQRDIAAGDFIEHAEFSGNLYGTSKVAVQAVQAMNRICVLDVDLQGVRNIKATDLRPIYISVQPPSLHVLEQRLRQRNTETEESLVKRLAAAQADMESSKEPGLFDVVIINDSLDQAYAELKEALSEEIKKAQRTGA", "conditions": "protein GUK1; U3A, 10 μM, 2 h"}, "[7]": {"target": "proteins of U3A human fibrosarcoma cells (4462 proteins detected) (Homo sapiens, UniProt Q9NX08)", "conditions": "protein COMMD8; soluble abundance after heat, U3A cells"}, "[8]": {"target": "proteins of U3A human fibrosarcoma cells (4462 proteins detected) (Homo sapiens, UniProt Q9P2R7)", "conditions": "protein SUCLA2; U3A, 10 μM, 2 h"}, "[9]": {"target": "proteins of U3A human fibrosarcoma cells (4462 proteins detected) (Homo sapiens, UniProt P61289)", "conditions": "protein PSME3; U3A cells"}, "[10]": {"target": "proteins of U3A human fibrosarcoma cells (4462 proteins detected) (Homo sapiens, UniProt P46060)", "conditions": "protein RANGAP1; U3A cells"}, "[11]": {"target": "proteins of U3A human fibrosarcoma cells (4462 proteins detected) (Homo sapiens, UniProt P30154)", "sequence (P30154 whole entry)": "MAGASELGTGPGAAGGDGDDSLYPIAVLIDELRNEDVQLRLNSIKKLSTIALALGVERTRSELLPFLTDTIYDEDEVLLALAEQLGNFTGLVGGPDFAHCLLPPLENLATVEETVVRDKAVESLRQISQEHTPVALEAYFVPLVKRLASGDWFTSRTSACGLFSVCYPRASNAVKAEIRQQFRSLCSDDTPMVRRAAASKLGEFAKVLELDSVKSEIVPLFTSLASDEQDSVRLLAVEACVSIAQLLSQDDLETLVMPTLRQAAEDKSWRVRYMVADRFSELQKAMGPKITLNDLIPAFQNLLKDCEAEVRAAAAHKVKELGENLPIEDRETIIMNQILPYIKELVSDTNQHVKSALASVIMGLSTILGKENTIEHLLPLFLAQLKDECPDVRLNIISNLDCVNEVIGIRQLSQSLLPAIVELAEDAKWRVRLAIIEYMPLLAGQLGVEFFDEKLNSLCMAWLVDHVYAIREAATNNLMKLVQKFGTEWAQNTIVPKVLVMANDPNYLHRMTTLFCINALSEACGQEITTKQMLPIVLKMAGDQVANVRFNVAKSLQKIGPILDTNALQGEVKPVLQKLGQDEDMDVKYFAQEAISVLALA", "conditions": "protein PPP2R1B; soluble abundance after heat, U3A cells"}, "[12]": {"target": "proteins of U3A human fibrosarcoma cells (4462 proteins detected) (Homo sapiens, UniProt Q9UNX4)", "conditions": "protein WDR3; U3A cells"}, "[13]": {"target": "proteins of U3A human fibrosarcoma cells (4462 proteins detected) (Homo sapiens, UniProt Q9BXS5)", "conditions": "protein AP1M1; U3A cells"}, "[14]": {"target": "proteins of U3A human fibrosarcoma cells (4462 proteins detected) (Homo sapiens, UniProt P29034)", "sequence (P29034 whole entry)": "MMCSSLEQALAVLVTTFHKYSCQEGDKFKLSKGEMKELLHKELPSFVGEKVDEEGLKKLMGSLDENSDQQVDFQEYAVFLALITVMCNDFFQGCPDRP", "conditions": "protein S100A2, U3A cells"}, "[15]": {"target": "proteins of U3A human fibrosarcoma cells (4462 proteins detected) (Homo sapiens, UniProt Q9UK53)", "conditions": "protein ING1; U3A, 10 μM, 2 h"}, "[16]": {"target": "proteins of U3A human fibrosarcoma cells (4462 proteins detected) (Homo sapiens, UniProt Q15365)", "conditions": "protein PCBP1; U3A cells"}, "[17]": {"target": "proteins of U3A human fibrosarcoma cells (4462 proteins detected) (Homo sapiens, UniProt P28799)", "sequence (P28799 18-593)": "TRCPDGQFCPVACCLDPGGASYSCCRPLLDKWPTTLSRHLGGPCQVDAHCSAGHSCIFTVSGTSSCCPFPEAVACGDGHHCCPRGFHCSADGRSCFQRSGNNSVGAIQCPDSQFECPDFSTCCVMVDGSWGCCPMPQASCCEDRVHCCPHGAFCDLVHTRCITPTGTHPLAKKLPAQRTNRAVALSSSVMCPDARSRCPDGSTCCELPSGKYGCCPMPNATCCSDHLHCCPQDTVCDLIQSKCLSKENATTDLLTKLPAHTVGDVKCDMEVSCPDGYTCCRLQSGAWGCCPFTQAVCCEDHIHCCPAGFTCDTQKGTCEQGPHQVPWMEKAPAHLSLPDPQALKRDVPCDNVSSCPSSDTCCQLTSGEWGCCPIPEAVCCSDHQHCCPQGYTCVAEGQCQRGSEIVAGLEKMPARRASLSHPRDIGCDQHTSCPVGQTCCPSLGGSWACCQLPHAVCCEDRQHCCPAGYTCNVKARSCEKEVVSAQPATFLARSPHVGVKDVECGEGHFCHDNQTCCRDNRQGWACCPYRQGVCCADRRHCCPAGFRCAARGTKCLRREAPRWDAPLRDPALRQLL", "conditions": "protein GRN; U3A cells"}, "[18]": {"target": "proteins of U3A human fibrosarcoma cells (4462 proteins detected) (Homo sapiens, UniProt P04083)", "conditions": "protein ANXA1, U3A cells"}, "[19]": {"target": "proteins of U3A human fibrosarcoma cells (4462 proteins detected) (Homo sapiens, UniProt P51114)", "conditions": "protein FXR1; U3A cells"}, "[20]": {"target": "proteins of U3A human fibrosarcoma cells (4462 proteins detected) (Homo sapiens, UniProt Q86V21)", "conditions": "protein AACS, U3A cells"}, "[21]": {"target": "proteins of U3A human fibrosarcoma cells (4462 proteins detected) (Homo sapiens, UniProt P54920)", "conditions": "protein NAPA; soluble abundance after heat, U3A cells"}, "[22]": {"target": "proteins of U3A human fibrosarcoma cells (4462 proteins detected) (Homo sapiens, UniProt P35221)", "conditions": "protein CTNNA1; U3A, 10 μM, 2 h"}, "[23]": {"target": "proteins of U3A human fibrosarcoma cells (4462 proteins detected) (Homo sapiens, UniProt Q9Y478)", "conditions": "protein PRKAB1; U3A cells"}, "[24]": {"target": "proteins of U3A human fibrosarcoma cells (4462 proteins detected) (Homo sapiens, UniProt Q9H3U1)", "conditions": "protein UNC45A; U3A cells"}, "[25]": {"target": "proteins of U3A human fibrosarcoma cells (4462 proteins detected) (Homo sapiens, UniProt Q9NZ52)", "conditions": "protein GGA3; soluble abundance after heat, U3A cells"}, "[26]": {"target": "proteins of U3A human fibrosarcoma cells (4462 proteins detected) (Homo sapiens, UniProt O43427)", "conditions": "protein FIBP; soluble abundance after heat, U3A cells"}, "[27]": {"target": "proteins of U3A human fibrosarcoma cells (4462 proteins detected) (Homo sapiens, UniProt Q8N6T3)", "conditions": "protein ARFGAP1; U3A, 10 μM, 2 h"}, "[28]": {"target": "proteins of U3A human fibrosarcoma cells (4462 proteins detected) (Homo sapiens, UniProt O00487)", "sequence (O00487 whole entry)": "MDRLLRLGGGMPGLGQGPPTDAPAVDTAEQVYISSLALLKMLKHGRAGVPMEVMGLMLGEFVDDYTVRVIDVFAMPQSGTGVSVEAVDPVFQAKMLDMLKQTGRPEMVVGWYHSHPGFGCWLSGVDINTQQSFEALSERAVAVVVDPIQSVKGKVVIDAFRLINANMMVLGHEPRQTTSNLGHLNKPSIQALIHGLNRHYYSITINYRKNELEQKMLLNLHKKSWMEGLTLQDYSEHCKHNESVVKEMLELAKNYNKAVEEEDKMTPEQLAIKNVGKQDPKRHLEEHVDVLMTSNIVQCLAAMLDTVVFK", "conditions": "protein PSMD14; U3A cells"}, "[29]": {"target": "proteins of U3A human fibrosarcoma cells (4462 proteins detected) (Homo sapiens, UniProt Q1ED39)", "conditions": "protein KNOP1; U3A cells"}, "[30]": {"target": "proteins of U3A human fibrosarcoma cells (4462 proteins detected) (Homo sapiens, UniProt Q12765)", "conditions": "protein SCRN1, U3A cells"}}, "data": [{"smiles": "CCc1nc(N)nc(N)c1-c1ccc(Cl)cc1", "note": "[pyrimethamine]", "values": [{"measurement": "Log2 (PYR/DMSO)", "setting": "[1]", "result": 0.22}, {"measurement": "Log2 (PYR/DMSO)", "setting": "[2]", "result": -0.03}, {"measurement": "Log2 (PYR/DMSO)", "setting": "[3]", "result": -0.04}, {"measurement": "Log2 (PYR/DMSO)", "setting": "[4]", "result": 0.22}, {"measurement": "Log2 (PYR/DMSO)", "setting": "[5]", "result": 0.14}, {"measurement": "Log2 (PYR/DMSO), GUK1", "setting": "[6]", "result": -0.14}, {"measurement": "Log2 (PYR/DMSO)", "setting": "[7]", "result": 0.14}, {"measurement": "Log2 (PYR/DMSO), SUCLA2", "setting": "[8]", "result": 0.23}, {"measurement": "Log2 (PYR/DMSO)", "setting": "[9]", "result": 0.17}, {"measurement": "Log2 (PYR/DMSO)", "setting": "[10]", "result": 0.18}, {"measurement": "Log2 (PYR/DMSO)", "setting": "[11]", "result": 0.15}, {"measurement": "Log2 (PYR/DMSO)", "setting": "[12]", "result": 0.17}, {"measurement": "Log2 (PYR/DMSO)", "setting": "[13]", "result": 0.17}, {"measurement": "Log2 (PYR/DMSO)", "setting": "[14]", "result": -0.04}, {"measurement": "Log2 (PYR/DMSO), ING1", "setting": "[15]", "result": -0.22}, {"measurement": "Log2 (PYR/DMSO)", "setting": "[16]", "result": 0.18}, {"measurement": "Log2 (PYR/DMSO)", "setting": "[17]", "result": 0.21}, {"measurement": "Log2 (PYR/DMSO)", "setting": "[18]", "result": -0.05}, {"measurement": "Log2 (PYR/DMSO)", "setting": "[19]", "result": 0.17}, {"measurement": "Log2 (PYR/DMSO)", "setting": "[20]", "result": -0.04}, {"measurement": "Log2 (PYR/DMSO)", "setting": "[21]", "result": 0.14}, {"measurement": "Log2 (PYR/DMSO), CTNNA1", "setting": "[22]", "result": 0.23}, {"measurement": "Log2 (PYR/DMSO)", "setting": "[23]", "result": 0.23}, {"measurement": "Log2 (PYR/DMSO)", "setting": "[24]", "result": 0.21}, {"measurement": "Log2 (PYR/DMSO)", "setting": "[25]", "result": 0.14}, {"measurement": "Log2 (PYR/DMSO)", "setting": "[26]", "result": 0.14}, {"measurement": "Log2 (PYR/DMSO), ARFGAP1", "setting": "[27]", "result": -0.14}, {"measurement": "Log2 (PYR/DMSO)", "setting": "[28]", "result": 0.17}, {"measurement": "Log2 (PYR/DMSO)", "setting": "[29]", "result": 0.17}, {"measurement": "Log2 (PYR/DMSO)", "setting": "[30]", "result": -0.04}]}]}
